Laboratory results from patent US11382956B2, “Amylin analogues” (Zealand Pharma A/S, priority 2016, dated 2022).
Numbered stars: 1 amine (or outer) side, 2 acyl side, 3 side chain; on linkers, the order of the positions; unused ones are H or OH. Bridge positions count the residues as written; N and C are the ends. Square brackets hold non-standard residues; d marks the D form. Peptide text beside a SMILES is read from it. * marks the point of attachment. C20 diacid = O=C(O)CCCCCCCCCCCCCCCCCCC(=O)*; γGlu = O=C(O)[C@H](CCC(=O)[*:2])N[*:1]; Hyp = O=C(O)[C@@H]1C[C@@H](O)CN1; NMeI = CC[C@H](C)[C@H](NC)C(=O)O; Orn = NCCC[C@H](N)C(=O)O; Sar = CNCC(=O)O

Columns and labels:
[1] = biological target: T1, recombinant human amylin 3 receptor (hAMYR3) (Homo sapiens, UniProt O60896+P30988); test: hAMYR3 cAMP assay (AlphaScreen) in 1321N1 cells; type: cell-based; settings: cAMP formation, 45 min stimulation
T1 construct: host or cells: human astrocytoma cell line 1321N1
T1 sequence (P30988 25-474): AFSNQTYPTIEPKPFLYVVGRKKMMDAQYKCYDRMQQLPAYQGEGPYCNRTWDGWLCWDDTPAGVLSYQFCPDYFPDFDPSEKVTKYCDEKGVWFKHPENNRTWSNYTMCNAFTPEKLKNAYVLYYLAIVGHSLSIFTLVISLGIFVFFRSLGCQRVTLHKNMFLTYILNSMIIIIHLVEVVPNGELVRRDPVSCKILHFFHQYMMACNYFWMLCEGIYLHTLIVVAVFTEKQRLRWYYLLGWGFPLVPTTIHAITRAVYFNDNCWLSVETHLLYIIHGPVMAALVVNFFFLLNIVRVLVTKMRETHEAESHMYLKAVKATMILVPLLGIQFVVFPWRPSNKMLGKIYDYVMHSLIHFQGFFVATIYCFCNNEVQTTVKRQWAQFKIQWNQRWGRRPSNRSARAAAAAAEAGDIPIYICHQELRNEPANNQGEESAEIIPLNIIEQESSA
T1 sequence (O60896 24-148 partner): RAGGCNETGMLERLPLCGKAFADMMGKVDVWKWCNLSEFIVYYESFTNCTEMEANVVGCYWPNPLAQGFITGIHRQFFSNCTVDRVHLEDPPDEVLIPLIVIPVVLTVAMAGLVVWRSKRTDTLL
Procedure, shortened: (§1)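 EC50 values come from curve fits over at least 7 peptide concentrations, with cAMP read by AlphaScreen competition after 1 h in the dark. Cells were 1321N1 lines carrying human calcitonin receptor, with RAMP3 co-expressed for AMY3, treated 45 min at room temperature in the presence of IBMX.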

[2] = Assessment of physical stability: fibril formation by Thioflavin T fluorescence; type: physicochemical; parameters: key: FND = fibrillation not detected; FD = fibrillation detected; settings: 1 mg/mL peptide; for Fibrillation (in buffer) pH4 acetate: 50 mM acetate buffer pH 4.0, 96 hours at 40° C.; for Fibrillation (in buffer) pH7 histidine: 50 mM histidine buffer pH 7.0, 96 hours at 40° C.; for Fibrillation (in buffer) pH7 phosphate: 50 mM phosphate buffer pH 7.0, 96 hours at 40° C.
Procedure: Solutions containing (i) 1 mg/mL of test peptide, 40 μM ThT and 50 mM phosphate (Ph) buffer (pH 7.0), (ii) 1 mg/mL of test peptide, 40 μM ThT and 50 mM histidine (His) buffer (pH 7.0), and (iii) 1 mg/mL of test peptide, 40 μM ThT and 50 mM acetate (Ac) buffer (pH 4.0), were loaded in a 96-well black fluorescence plate (clear bottom) in triplicate. Data were collected at fixed intervals of 10 min, each preceded by 300 s of automixing (agitation), over a period of 96 hours at 40° C. Physical stability is determined by measuring the fluorescence intensity over time. A significant increase in intensity is rated as fibrillation detected (FD).

[3] = biological target: T2, recombinant human calcitonin receptor (hCT-R) (Homo sapiens, UniProt P30988); test: hCT-R cAMP assay (AlphaScreen) in 1321N1 cells; type: cell-based; settings: cAMP formation, 45 min stimulation
T2 construct: host or cells: human astrocytoma cell line 1321N1
T2 sequence (P30988 25-474): T1 sequence (P30988 25-474)
Procedure, shortened: as §1

[4] = Assessment of chemical stability in 40 mM buffers at 40° C. (RP-HPLC); type: physicochemical; settings: 1 mg/mL; for % degradation after 72 h at 40° C. pH4 acetate: acetate buffer pH 4, 72 h; for % degradation after 72 h at 40° C. pH6 phosphate: phosphate buffer pH 6, 72 h; for % degradation after 72 h at 40° C. pH7 phosphate: phosphate buffer pH 7, 72 h
Procedure: Samples of each test peptide were dissolved in acetate buffer pH 4 and phosphate buffer pH 6 and 7 (all buffer 40 mM). The final peptide concentration was 1 mg/mL. Samples were placed in glass vials and incubated at 40° C. The samples were analyzed by RP-HPLC on a C8 column with gradient elution using a trifluoroacetic acid/acetonitrile/water eluent system. The area-percentage (area-%) of the main peak was determined by UV spectroscopy at 220 nm at each sampling time point.
The % degradation was calculated by subtracting the […].
The results of the chemical stability assessment after 3 days of incubation time are summarized as % degradation in Table 1 (below).
The results of the chemical stability assessment after 14 days of incubation time are summarized as % degradation in Table 2 (below).

CC[C@H](C)[C@@H](C(=O)N[C@@H](CC(C)C)C(=O)N[C@@H](CO)C(=O)N[C@@H](CO)C(=O)N[C@H](C(=O)N[C@@H](CCC(=O)O)C(=O)N[C@H](C(=O)NCC(=O)N[C@@H](CO)C(=O)N[C@@H](CC(N)=O)C(=O)N[C@H](C(=O)N1C[C@H](O)C[C@H]1C(N)=O)[C@@H](C)O)C(C)C)[C@@H](C)O)N(C)C(=O)[C@H](C)NC(=O)CN(C)C(=O)[C@H](Cc1ccccc1)NC(=O)[C@H](CO)NC(=O)[C@H](CO)NC(=O)[C@H](CCCNC(=N)N)NC(=O)[C@H](CCC(N)=O)NC(=O)[C@H](CC(C)C)NC(=O)[C@H](Cc1ccccc1)NC(=O)[C@H](Cc1c[nH]cn1)NC(=O)[C@H](C)NC(=O)[C@H](CC(C)C)NC(=O)[C@H](CCCNC(=N)N)NC(=O)[C@H](CCC(N)=O)NC(=O)[C@@H](NC(=O)[C@H](C)NC(=O)[C@@H]1CCCNC(=O)C[C@H](NC(=O)[C@H](CCCNC(=N)N)NC(=O)CC[C@H](NC(=O)CCCCCCCCCCCCCCCCCCC(=O)O)C(=O)O)C(=O)NCC(=O)N[C@@H]([C@@H](C)O)C(=O)N[C@@H](C)C(=O)N[C@@H]([C@@H](C)O)C(=O)N1)[C@@H](C)O [Compound 8, [19CD]-isoGlu-RD()GTAT-Orn()-ATQRLAHFLQRSSF-Gly(Me)-A-Ile(Me)-LSSTEVGSNT-Hyp-NH2] ({C20 diacid-γGlu}-RDGTAT[Orn]ATQRLAHFLQRSSF[Sar]A[NMeI]LSSTEVGSNT[Hyp]-NH2; lactam 2-7)
EC50 [1]: 0.059 nM | Fibrillation (in buffer) pH4 acetate [2]: FND | Fibrillation (in buffer) pH7 histidine [2]: FND | Fibrillation (in buffer) pH7 phosphate [2]: FND | EC50 [3]: 0.129 nM | % degradation after 72 h at 40° C. pH4 acetate [4]: <1% | % degradation after 72 h at 40° C. pH6 phosphate [4]: <1% | % degradation after 72 h at 40° C. pH7 phosphate [4]: <1%

CC[C@H](C)[C@@H](C(=O)N[C@@H](CC(C)C)C(=O)N[C@@H](CO)C(=O)N[C@@H](CO)C(=O)N[C@H](C(=O)N[C@@H](CCC(=O)O)C(=O)N[C@H](C(=O)NCC(=O)N[C@@H](CO)C(=O)N[C@@H](CC(N)=O)C(=O)N[C@H](C(=O)N1C[C@H](O)C[C@H]1C(N)=O)[C@@H](C)O)C(C)C)[C@@H](C)O)N(C)C(=O)[C@H](C)NC(=O)CN(C)C(=O)[C@H](Cc1ccccc1)NC(=O)[C@H](CO)NC(=O)[C@H](CO)NC(=O)[C@H](CCCNC(=N)N)NC(=O)[C@H](CCC(N)=O)NC(=O)[C@H](CC(C)C)NC(=O)[C@H](Cc1ccccc1)NC(=O)[C@H](CCCNC(=N)N)NC(=O)[C@H](C)NC(=O)[C@H](CC(C)C)NC(=O)[C@H](CCCNC(=N)N)NC(=O)[C@H](CCC(=O)O)NC(=O)[C@@H](NC(=O)[C@H](C)NC(=O)[C@@H]1CCCNC(=O)C[C@H](NC(=O)[C@H](CCCNC(=N)N)NC(=O)CC[C@H](NC(=O)CCCCCCCCCCCCCCCCCCC(=O)O)C(=O)O)C(=O)NCC(=O)N[C@@H]([C@@H](C)O)C(=O)N[C@@H](C)C(=O)N[C@@H]([C@@H](C)O)C(=O)N1)[C@@H](C)O [Compound 10, [19CD]-isoGlu-RD()GTAT-Orn()-ATERLARFLQRSSF-Gly(Me)-A-Ile(Me)-LSSTEVGSNT-Hyp-NH2] ({C20 diacid-γGlu}-RDGTAT[Orn]ATERLARFLQRSSF[Sar]A[NMeI]LSSTEVGSNT[Hyp]-NH2; lactam 2-7)
EC50 [1]: 0.068 nM | Fibrillation (in buffer) pH4 acetate [2]: FD | Fibrillation (in buffer) pH7 histidine [2]: FND | Fibrillation (in buffer) pH7 phosphate [2]: FND | EC50 [3]: 0.345 nM | % degradation after 72 h at 40° C. pH4 acetate [4]: <1% | % degradation after 14 days at 40° C. pH4 acetate ([4]; acetate buffer pH 4, 14 days): 1.9% | % degradation after 72 h at 40° C. pH6 phosphate [4]: <1% | % degradation after 14 days at 40° C. pH6 phosphate ([4]; phosphate buffer pH 6, 14 days): 1.8% | % degradation after 72 h at 40° C. pH7 phosphate [4]: <1% | % degradation after 14 days at 40° C. pH7 phosphate ([4]; phosphate buffer pH 7, 14 days): 9.1%

CC[C@H](C)[C@@H](C(=O)N[C@@H](CC(C)C)C(=O)N[C@@H](CO)C(=O)N[C@@H](CO)C(=O)N[C@H](C(=O)N[C@@H](CCC(=O)O)C(=O)N[C@H](C(=O)NCC(=O)N[C@@H](CO)C(=O)N[C@@H](CC(N)=O)C(=O)N[C@H](C(=O)N1C[C@H](O)C[C@H]1C(N)=O)[C@@H](C)O)C(C)C)[C@@H](C)O)N(C)C(=O)[C@H](C)NC(=O)CN(C)C(=O)[C@H](Cc1ccccc1)NC(=O)[C@H](CO)NC(=O)[C@H](CO)NC(=O)[C@H](CCCNC(=N)N)NC(=O)[C@H](CCC(N)=O)NC(=O)[C@H](CC(C)C)NC(=O)[C@H](Cc1ccccc1)NC(=O)[C@H](Cc1c[nH]cn1)NC(=O)[C@H](C)NC(=O)[C@H](CC(C)C)NC(=O)[C@H](CCCNC(=N)N)NC(=O)[C@H](CCC(=O)O)NC(=O)[C@@H](NC(=O)[C@H](C)NC(=O)[C@@H]1CCCCNC(=O)C[C@H](NC(=O)[C@H](CCC(=O)O)NC(=O)CC[C@H](NC(=O)CCCCCCCCCCCCCCCCCCC(=O)O)C(=O)O)C(=O)NCC(=O)N[C@@H]([C@@H](C)O)C(=O)N[C@@H](C)C(=O)N[C@@H]([C@@H](C)O)C(=O)N1)[C@@H](C)O [Compound 11, [19CD]-isoGlu-ED()GTATK()ATERLAHFLQRSSF-Gly(Me)-A-Ile(Me)-LSSTEVGSNT-Hyp-NH2] ({C20 diacid-γGlu}-EDGTATKATERLAHFLQRSSF[Sar]A[NMeI]LSSTEVGSNT[Hyp]-NH2; lactam 2-7)
EC50 [1]: 0.024 nM | Fibrillation (in buffer) pH4 acetate [2]: FND | Fibrillation (in buffer) pH7 histidine [2]: FND | Fibrillation (in buffer) pH7 phosphate [2]: FND | EC50 [3]: 0.068 nM | % degradation after 72 h at 40° C. pH4 acetate [4]: <1% | % degradation after 72 h at 40° C. pH6 phosphate [4]: <1% | % degradation after 72 h at 40° C. pH7 phosphate [4]: <1%

CC[C@H](C)[C@@H](C(=O)N1CCC[C@H]1C(=O)N[C@@H](CO)C(=O)N[C@@H](CO)C(=O)N[C@H](C(=O)N[C@@H](CCC(=O)O)C(=O)N[C@H](C(=O)NCC(=O)N[C@@H](CO)C(=O)N[C@@H](CC(N)=O)C(=O)N[C@H](C(=O)N1C[C@H](O)C[C@H]1C(N)=O)[C@@H](C)O)C(C)C)[C@@H](C)O)N(C)C(=O)[C@H](C)NC(=O)CN(C)C(=O)[C@H](Cc1ccccc1)NC(=O)[C@H](CO)NC(=O)[C@H](CO)NC(=O)[C@H](CCCNC(=N)N)NC(=O)[C@H](CCC(N)=O)NC(=O)[C@H](CC(C)C)NC(=O)[C@H](Cc1ccccc1)NC(=O)[C@H](Cc1c[nH]cn1)NC(=O)[C@H](C)NC(=O)[C@H](CC(C)C)NC(=O)[C@H](CCCNC(=N)N)NC(=O)[C@H](CCC(=O)O)NC(=O)[C@@H](NC(=O)[C@H](C)NC(=O)[C@@H]1CCCCNC(=O)C[C@H](NC(=O)[C@H](CCCNC(=N)N)NC(=O)CC[C@H](NC(=O)CCCCCCCCCCCCCCCCCCC(=O)O)C(=O)O)C(=O)NCC(=O)N[C@@H]([C@@H](C)O)C(=O)N[C@@H](C)C(=O)N[C@@H]([C@@H](C)O)C(=O)N1)[C@@H](C)O [Compound 17, [19CD]-isoGlu-RD()GTATK()ATERLAHFLQRSSF-Gly(Me)-A-Ile(Me)-PSSTEVGSNT-Hyp-NH2] ({C20 diacid-γGlu}-RDGTATKATERLAHFLQRSSF[Sar]A[NMeI]PSSTEVGSNT[Hyp]-NH2; lactam 2-7)
EC50 [1]: 0.025 nM | Fibrillation (in buffer) pH4 acetate [2]: FND | Fibrillation (in buffer) pH7 histidine [2]: FND | Fibrillation (in buffer) pH7 phosphate [2]: FND | EC50 [3]: 0.058 nM | % degradation after 72 h at 40° C. pH4 acetate [4]: 1.2% | % degradation after 72 h at 40° C. pH6 phosphate [4]: <1% | % degradation after 72 h at 40° C. pH7 phosphate [4]: <1%
